The nature of data set [1]: Acute toxicity in the mouse (oral). The following applies: in vivo, mouse (male). On the procedure:
(§1) The test compounds shown in Table 2 were administered orally to male mice and rats in the form of a suspension in a 1% solution of sodium carboxymethyl cellulose. The LD50 (lethal dose 50%) was calculated by the method of Litchfield and Wilcoxon.

Data set [2] is described as follows: Acute toxicity in the rat (oral). The following applies: in vivo. On the procedure:
as §1

Data set [3] in a line: Anti-convulsant activity in the mouse (convulsions induced by 1,5-pentamethylenetetrazole). The following applies: 30 min before pentamethylenetetrazole s.c. The format is in vivo. On the procedure: The inhibition of convulsions induced by 1,5-pentamethylenetetrazole was tested by the Clen method. The test compounds were administered orally to the mice, in the doses shown in Table 3, in the form of suspensions in 1% sodium carboxymethyl cellulose solution, and 30 minutes later the test animals were injected subcutaneously with […] of 1,5-pentamethylenetetrazole. The number of mice protected from lethal extensorial tonic spasms, per group of 10 test animals, was recorded.

Data set [4] is described as follows: Potentiation of narcosis (hexobarbitone sodium) in the mouse, Winter method. To be noted: hexobarbitone sodium 80 mg/kg i.p., control 33.3. The format is in vivo. On the procedure:
The Winter method was used, in which a state of narcosis is induced by the intraperitoneal administration of 80 mg/kg of hexobarbitone sodium, and is assessed by the loss of the righting reflex in the test animal. […] orally to the animals, in doses shown in Table 4, as suspensions in 1% sodium carboxymethyl cellulose solution; and the prolongation of narcosis in the animals thus treated was observed, by comparison with controls which received only the hexobarbitone administration.

A short description of data set [5]: Myorelaxant activity in the mouse (traction test). The format is in vivo. To be noted: after 30 minutes. On the procedure: This was determined by the traction test of Joulon Courvoisier, following Boissier and Simon, in which the mouse is suspended by its front paws to a horizontal metal wire, and the animal's capacity to get up with its hind paws is observed. The test compounds were administered orally to the animals, in the doses shown in Table 5, as suspensions in 1% sodium carboxymethyl cellulose solution; and the animals were tested 30 minutes and 180 minutes after administration. The test animals were deemed to be myorelaxant if unable to get up within 5 seconds.

A short description of data set [6]: Effect on muscular relaxation in mice (30° inclined screen, Randall). The format is in vivo. On the procedure:
The method utilized was the procedure described by Randall (1961) using a 30° inclined screen.

A short description of data set [7]: Convulsions induced by pentamethylenetetrazol in rats. The format is in vivo. On the procedure:
The method utilized was according to the method published by Everett and Richards (1944) and Banziger (1965). The pentamethylenetetrazol was given subcutaneously (125 mg/kg) and the test compounds were given orally suspended in a 1% carboxymethyl cellulose solution.

The nature of data set [8]: Hypnotic activity comparison (Janssen 1959). The format is in vivo. To be noted: Table 11; species not given. On the procedure:
Toxicity in test animals to the test compounds in terms of LD50 after oral and intraperitoneal administration was determined according to the procedure of Litchfield and Wilcoxan (1949) and the hypnotic effect on test animals was determined in accordance with the method of Janssen (1959).

A short description of data set [9]: ECoG and sedation in test animals free to move. The following applies: unrestricted animals; compound 3 at 10 mg/kg. The format is in vivo. On the procedure:
Some test animals were kept in restraint cases placed in a relatively soundproof room and some were left free to move in metal cases measuring 40×50×30 cm, which were also kept in a relatively quiet environment.
In the test animals which were free to move, the first signs of sedation produced by the intragastric administration of 7.5 mg/kg of compounds 1 and 4 appeared, respectively, at 16 minutes (compound 1) and at 8 minutes (compound 4). […] The duration of the effect was, however, shorter, not exceeding 3 hours under these conditions in contrast to the 5 hour minimum for restricted animals.

A short description of data set [10]: Electrogenesis of various subcortical centers. The format is in vivo. The following applies: in vivo. On the procedure: This study was conducted with test animals weighing between 2.6 and 2.8 kg, following the stereotaxic method of Monnier and Gangloff (Atlas et techniques stereotaxique pour le cerveau du lopin eveille, 1961, Elsevier Pub. Co.), permitting the stimulation of certain subcortical structures as well as a simultaneous detection and recording of their electrical activities, which were compared to that of reference cortical electrodes. In this study, the subcortical centers considered were the caudate nucleus, the dorsal hippocampus, the lateral thalamus, the mesenephalic reticular formation, and the hypothalamic reticular formation. Test compounds 1 and 4 were administered by the intragastric route with an identical dose of 7.5 mg/kg.
Spontaneous activity in the subcortical centers of the unanesthetized animals is characterized by desynchronized activity consisting of high amplitude and relatively slow rhythms (4 to 5 c/sec.), alternating with low amplitude rapid rhythms (12 to 13 c/sec.). Tracings from the hippocampus and caudate nucleus sometimes takes the form of bursts, which is less commonly the case from the thalamus. These may occur at the same time as bursts of rapid spikes arising from the frontal cortex. During periods of arousal, this desynchronized activity is followed by a synchronized theta rhythm (7 to 8 c/sec.) from the hippocampus and caudate nucleus and from the median thalamus, whereas the cortical and reticular electrical activities are transformed into ultra-rapid and low voltage rhythms (30μ volts).

Data set [11] in a line: Motor coordination in rats (rotarod, Dunham and Miya 1957). To be noted: 68 mg/kg/os.

The values that follow come from patent US4313943A, “7-Chloro-2,3-dihydro-5-phenyl-1-propargyl-1H-1,4-benzodiazepine-2-one, and a pharmaceutical composition thereof” (priority 1972, dated 1982).

“Also recorded” adds a separate entry of the source.

What is called LD50 is the dose at which mortality reaches 50%. Broadly, the ED50 is the dose that gives a 50% effect, or the effect in half of the subjects.

For the molecule `C#CCN1C(=O)CN=C(c2ccccc2)c2cc([N+](=O)[O-])ccc21` [Compound 2, 7-nitro-2,3-dihydro-5-phenyl-1-propargyl-1H-1,4-benzodiazepin-2-one], the LD50 in data set [1] is 1880 mg/kg; in data set [2] it was 876 mg/kg. The “No. of Animals Protected” value in [3] (0.12 mg/kg oral) is 1/10; in data set [3] (0.25 mg/kg oral) it was 4/10; in data set [3] (0.5 mg/kg oral), 9/10. Also, the Duration of narcosis is 53.4 min in data set [4] (0.5 mg/kg oral), 94.5 min in [4] (1.0 mg/kg oral) and 195.1 min in [4] (2.0 mg/kg oral). Also, the “Percentage of myorelaxant animals” value is 10% in data set [5] (1.0 mg/kg oral), 20% in [5] (2.0 mg/kg oral), 40% in data set [5] (4.0 mg/kg oral) and 60% in data set [5] (8.0 mg/kg oral).
As to `CN1C(=O)CN=C(c2ccccc2)c2cc(Cl)ccc21` [Compound 3, 7-chloro-1,3-dihydro-1-methyl-5-phenyl-2H-1,4-benzodiazepin-2-one, reference compound], the “% Relaxed Animals” value in [6] (10 mg/kg/os) is listed as 20%. Besides, the ED50 in data set [6] (Mus musculus, po, muscular relaxation, read-out: ED50 (and C.L.)) was 14.1 mg/kg; in [7] (Rattus norvegicus, oral, protection against pentamethylenetetrazol, read-out: ED50 (and C.L.) (converted)), 7.8 mg/kg; in data set [8], 242 mg/kg. In addition, the “% Protected Animals” value in [7] (Time 90 min.) was 20%; in data set [7] (Time 120 min.), 10%; in [7] (Time 180 min.), 0%; in [7] (Time 240 min.), 0%. Further, the “duration of ECoG effects (three compounds compared)” value in data set [9] was “about 31/2”. For the same molecule, the “EEG activity of the hippocampus” value in data set [10] (listed as Valium) is reported as “depressed; also recorded: reduction in the amplitude of the hippocampal rhythm”. Also, in data set [11], the “% Uncoordinated Animals” value came to 50%.
For the molecule `CNC1=Nc2ccc(Cl)cc2C(c2ccccc2)=[N+]([O-])C1` [Librium, reference compound], in [10], the “EEG activity of the hippocampus” value is reported as “depressed; also recorded: reduction in the amplitude of the hippocampal rhythm”.
